Results as given in patent US20100099561A1, “HETEROBICYCLIC ALKYLTHIO-BRIDGED ISOXAZOLINES” (E.I. DU PONT DE NEMOURS AND COMPANY, priority 2008, published 2010).

Assays:
Type in all cases: in vivo
[1] = test system: morningglory (Ipomoea spp.); assay: Test A preemergence, morningglory; details: 0 to 100 scale (0 no effect, 100 complete control)
Procedure, shortened: (§1)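 Visual injury rating, 0 = no effect to 100 = complete control, made roughly ten days after treatment by comparison with untreated controls. Preemergence: directed soil spray onto freshly planted loam/sand. Postemergence: foliar application at one- to two-leaf stage, 2–10 cm height.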

[2] = test system: umbrella sedge (Cyperus difformis); assay: Test B flooded paddy test, umbrella sedge; details: Flood, scale 0 to 100
Procedure, shortened: (§2)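 2-leaf plants; pots flooded 3 cm above soil; compound added to paddy water; depth maintained. Greenhouse 13–15 d. Visual rating vs controls, 0 (no effect) to 100 (complete control); dash = no result.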

[3] = test system: pigweed (Amaranthus retroflexus); assay: Test A postemergence, pigweed; details: 0 to 100 scale (0 no effect, 100 complete control)
Procedure, shortened: as §1

[4] = test system: morningglory (Ipomoea spp.); assay: Test A postemergence, morningglory; details: 0 to 100 scale (0 no effect, 100 complete control)
Procedure, shortened: as §1

[5] = test system: wheat (Triticum aestivum); assay: Test A preemergence, wheat; details: 0 to 100 scale (0 no effect, 100 complete control)
Procedure, shortened: as §1

[6] = test system: large crabgrass (Digitaria sanguinalis); assay: Test A postemergence, large crabgrass; details: 0 to 100 scale (0 no effect, 100 complete control)
Procedure, shortened: as §1

[7] = test system: giant foxtail (Setaria faberi); assay: Test A preemergence, giant foxtail; details: 0 to 100 scale (0 no effect, 100 complete control)
Procedure, shortened: as §1

[8] = test system: barnyardgrass (Echinochloa crus-galli); assay: Test A preemergence, barnyardgrass; details: 0 to 100 scale (0 no effect, 100 complete control)
Procedure, shortened: as §1

[9] = test system: large crabgrass (Digitaria sanguinalis); assay: Test A preemergence, large crabgrass; details: 0 to 100 scale (0 no effect, 100 complete control)
Procedure, shortened: as §1

[10] = test system: barnyardgrass (Echinochloa crus-galli); assay: Test B flooded paddy test, barnyardgrass; details: Flood
Procedure, shortened: as §2

[11] = test system: velvetleaf (Abutilon theophrasti); assay: Test A preemergence, velvetleaf; details: 0 to 100 scale (0 no effect, 100 complete control)
Procedure, shortened: as §1

[12] = test system: ducksalad (Heteranthera limosa); assay: Test B flooded paddy test, ducksalad; details: Flood, scale 0 to 100
Procedure, shortened: as §2

[13] = test system: giant foxtail (Setaria faberi); assay: Test A postemergence, giant foxtail; details: 0 to 100 scale (0 no effect, 100 complete control)
Procedure, shortened: as §1

corn (Zea mays) [14] = assay: Test A postemergence, corn; details: 0 to 100 scale (0 no effect, 100 complete control)
Procedure, shortened: as §1

corn (Zea mays) [15] = assay: Test A preemergence, corn; details: 0 to 100 scale (0 no effect, 100 complete control)
Procedure, shortened: as §1

[16] = test system: wheat (Triticum aestivum); assay: Test A postemergence, wheat; details: 0 to 100 scale (0 no effect, 100 complete control)
Procedure, shortened: as §1

[17] = test system: velvetleaf (Abutilon theophrasti); assay: Test A postemergence, velvetleaf; details: 0 to 100 scale (0 no effect, 100 complete control)
Procedure, shortened: as §1

[18] = test system: pigweed (Amaranthus retroflexus); assay: Test A preemergence, pigweed; details: 0 to 100 scale (0 no effect, 100 complete control)
Procedure, shortened: as §1

[19] = test system: barnyardgrass (Echinochloa crus-galli); assay: Test A postemergence, barnyardgrass; details: 0 to 100 scale (0 no effect, 100 complete control)
Procedure, shortened: as §1

rice (Oryza sativa) = assay: Test B flooded paddy test, rice; details: Flood, scale 0 to 100
Procedure, shortened: as §2

[20] = 250 g ai/ha, scale 0 to 100 (0 no effect, 100 complete control)

CC1(C)CC(S(=O)(=O)Cc2c(C(F)(F)F)nc3ccccn3c2=O)=NO1 [Compound 7]
20: Plant response rating, Velvetleaf ([17]; 500 g ai/ha)
0: Plant response rating, Morningglory ([1]; 125 g ai/ha) | Plant response rating, Morningglory ([1]; 500 g ai/ha) | Plant response rating, Sedge, Umbrella ([2]; 62 g ai/ha) | Plant response rating, Sedge, Umbrella ([2]; 250 g ai/ha) | Plant response rating, Pigweed ([3]; 125 g ai/ha) | Plant response rating, Pigweed ([3]; 500 g ai/ha) | Plant response rating, Morningglory ([4]; 125 g ai/ha) | Plant response rating, Morningglory ([4]; 500 g ai/ha) | Plant response rating, Wheat ([5]; 125 g ai/ha) | Plant response rating, Barnyardgrass ([10]; 62 g ai/ha, scale 0 to 100) | Plant response rating, Barnyardgrass [10, 20] | Plant response rating, Velvetleaf ([11]; 125 g ai/ha) | Plant response rating, Velvetleaf ([11]; 500 g ai/ha) | Plant response rating, Ducksalad ([12]; 62 g ai/ha) | Plant response rating, Ducksalad ([12]; 250 g ai/ha) | Plant response rating, Corn (corn (Zea mays) [14]; 125 g ai/ha) | Plant response rating, Corn (corn (Zea mays) [14]; 500 g ai/ha) | Plant response rating, Corn (corn (Zea mays) [15]; 125 g ai/ha) | Plant response rating, Corn (corn (Zea mays) [15]; 500 g ai/ha) | Plant response rating, Wheat ([16]; 125 g ai/ha) | Plant response rating, Wheat ([16]; 500 g ai/ha) | Plant response rating, Velvetleaf ([17]; 125 g ai/ha) | Plant response rating, Pigweed ([18]; 125 g ai/ha) | Plant response rating, Pigweed ([18]; 500 g ai/ha) | Plant response rating, Rice (rice (Oryza sativa); 62 g ai/ha) | Plant response rating, Rice (rice (Oryza sativa); 250 g ai/ha)
10: Plant response rating, Wheat ([5]; 500 g ai/ha)
80: Plant response rating, Crabgrass, Large ([6]; 500 g ai/ha) | Plant response rating, Foxtail, Giant ([7]; 125 g ai/ha) | Plant response rating, Crabgrass, Large ([9]; 500 g ai/ha) | Plant response rating, Foxtail, Giant ([13]; 500 g ai/ha) | Plant response rating, Barnyardgrass ([19]; 125 g ai/ha) | Plant response rating, Barnyardgrass ([19]; 500 g ai/ha)
90: Plant response rating, Foxtail, Giant ([7]; 500 g ai/ha) | Plant response rating, Barnyardgrass ([8]; 500 g ai/ha)
40: Plant response rating, Crabgrass, Large ([6]; 125 g ai/ha)
60: Plant response rating, Barnyardgrass ([8]; 125 g ai/ha) | Plant response rating, Crabgrass, Large ([9]; 125 g ai/ha) | Plant response rating, Foxtail, Giant ([13]; 125 g ai/ha)

CC1(C)CC([S+]([O-])Cc2c(C(F)(F)Cl)nc3n(c2=O)CCCS3)=NO1 (stereo not drawn) [Compound 36]
20: Plant response rating, Wheat ([16]; 500 g ai/ha) | Plant response rating, Barnyardgrass ([19]; 125 g ai/ha)
60: Plant response rating, Barnyardgrass ([8]; 500 g ai/ha) | Plant response rating, Foxtail, Giant ([13]; 500 g ai/ha)
0: Plant response rating, Morningglory ([1]; 125 g ai/ha) | Plant response rating, Morningglory ([1]; 500 g ai/ha) | Plant response rating, Sedge, Umbrella ([2]; 31 g ai/ha) | Plant response rating, Sedge, Umbrella ([2]; 62 g ai/ha) | Plant response rating, Sedge, Umbrella ([2]; 125 g ai/ha) | Plant response rating, Sedge, Umbrella ([2]; 250 g ai/ha) | Plant response rating, Pigweed ([3]; 125 g ai/ha) | Plant response rating, Pigweed ([3]; 500 g ai/ha) | Plant response rating, Morningglory ([4]; 125 g ai/ha) | Plant response rating, Wheat ([5]; 125 g ai/ha) | Plant response rating, Wheat ([5]; 500 g ai/ha) | Plant response rating, Barnyardgrass ([8]; 125 g ai/ha) | Plant response rating, Barnyardgrass ([10]; 31 g ai/ha, scale 0 to 100) | Plant response rating, Barnyardgrass ([10]; 62 g ai/ha, scale 0 to 100) | Plant response rating, Barnyardgrass ([10]; 125 g ai/ha, scale 0 to 100) | Plant response rating, Barnyardgrass [10, 20] | Plant response rating, Velvetleaf ([11]; 125 g ai/ha) | Plant response rating, Velvetleaf ([11]; 500 g ai/ha) | Plant response rating, Ducksalad ([12]; 31 g ai/ha) | Plant response rating, Ducksalad ([12]; 62 g ai/ha) | Plant response rating, Ducksalad ([12]; 125 g ai/ha) | Plant response rating, Ducksalad ([12]; 250 g ai/ha) | Plant response rating, Corn (corn (Zea mays) [14]; 500 g ai/ha) | Plant response rating, Corn (corn (Zea mays) [15]; 125 g ai/ha) | Plant response rating, Wheat ([16]; 125 g ai/ha) | Plant response rating, Velvetleaf ([17]; 125 g ai/ha) | Plant response rating, Velvetleaf ([17]; 500 g ai/ha) | Plant response rating, Pigweed ([18]; 125 g ai/ha) | Plant response rating, Pigweed ([18]; 500 g ai/ha) | Plant response rating, Rice (rice (Oryza sativa); 31 g ai/ha) | Plant response rating, Rice (rice (Oryza sativa); 62 g ai/ha) | Plant response rating, Rice (rice (Oryza sativa); 125 g ai/ha) | Plant response rating, Rice (rice (Oryza sativa); 250 g ai/ha)
10: Plant response rating, Corn (corn (Zea mays) [15]; 500 g ai/ha)
70: Plant response rating, Foxtail, Giant ([7]; 500 g ai/ha)
50: Plant response rating, Crabgrass, Large ([6]; 500 g ai/ha) | Plant response rating, Crabgrass, Large ([9]; 500 g ai/ha) | Plant response rating, Foxtail, Giant ([13]; 125 g ai/ha) | Plant response rating, Barnyardgrass ([19]; 500 g ai/ha)
30: Plant response rating, Morningglory ([4]; 500 g ai/ha) | Plant response rating, Crabgrass, Large ([6]; 125 g ai/ha) | Plant response rating, Foxtail, Giant ([7]; 125 g ai/ha) | Plant response rating, Crabgrass, Large ([9]; 125 g ai/ha)
